What was measured:
Format in all cases: physicochemical
[1] = storage stability determined by HPLC analysis
Experimental: The product was obtained as a white amorphous powder. The product was stable for more than 2 years when stored at −20° C., as determined by HPLC analysis (purity >97%). When stored at 2-8° C., the product was not stable for longer than 3-6 months.
When stored at 2-8° C., the liquid formulation was not stable for longer than 6 months, as determined by HPLC analysis.
The lyophilized product was prepared according to Example 1 and stored at 5° C., ambient temperature, 37° C., and 50° C. Stability was monitored for approximately 18 months by periodically reconstituting a sample and analyzing the entire contents of the bottle by HPLC.
(§1) The lyophilized product was prepared according to Example 1, and samples (2.5 mg/vial) were reconstituted with 2.5 mL of 0.9% w/v sterile saline. […] No special care was taken to protect the solution from light.

[2] = reconstitution / dissolution of the formulation in aqueous solvents; details: 0.9% w/v saline, saline or isotonic, thermodynamic from solid; read-out: solubility (concentration dissolved)
Experimental: One sample was reconstituted with 2 mL of water. Dissolution was complete within 1-2 minutes of shaking. The entire solution was transferred to a volumetric flask, diluted, and analyzed by HPLC for content of N-(2-pyrazine)carbonyl-L-phenylalanine-L-leucine boronic acid. The total drug content was 1.09 mg. A second sample was reconstituted with 1 mL of propylene glycol:EtOH:H2O, 40:10:50. Dissolution was complete with 1 minute of shaking. The total drug content was 1.11 mg.
The lyophilized formulation was also reconstituted with 0.9% w/v saline. The lyophilized material dissolved readily at concentrations up to 6 mg/mL.
as §1

[3] = dynamic vapor sorption studies; details: crystalline product

| time stable on storage ([1]; stored at 2-8° C., HPLC analysis) | time stable on storage ([1]; stored at −20° C., HPLC analysis (purity >97%)) | solubility [2] [µg/mL] | SMILES | hygroscopicity [3] |
| --- | --- | --- | --- | --- |
| 3-6 months | more than 2 years | < 1000 | CC(C)C[C@H](NC(=O)[C@H](Cc1ccccc1)NC(=O)c1cnccn1)B(O)O [N-(2-pyrazine)carbonyl-L-phenylalanine-L-leucine boronic acid] |  |
|  |  |  | CC(C)C[C@H](NC(=O)[C@H](Cc1ccccc1)NC(=O)c1cnccn1)B1OB([C@H](CC(C)C)NC(=O)[C@H](Cc2ccccc2)NC(=O)c2cnccn2)OB([C@H](CC(C)C)NC(=O)[C@H](Cc2ccccc2)NC(=O)c2cnccn2)O1 [N-(2-pyrazine)carbonyl-L-phenylalanine-L-leucine boroxine] | non-hygroscopic |
